Assay results: the supplement of paper PMC13380429
Structures can show the parent of a compound that is named as a salt.

Experiments:
[1] = tested on: A549-ACE2 infected with SARS-CoV-2; assay: cell count relative to DMSO; higher = less toxic; conditions: 24 h
[2] = tested on: Caco-2; assay: cell viability relative to DMSO; higher = less toxic; conditions: 72 h
[3] = tested on: Calu-3; assay: as above; conditions: 72 h
[4] = tested on: HepG2; assay: as above; conditions: 72 h
[5] = tested on: U2OS; assay: as above; conditions: 72 h
[6] = tested on: Vero E6; assay: as above; conditions: 72 h
[7] = tested on: A549-ACE2 infected with SARS-CoV-2; assay: SARS-CoV-2 infection rate relative to DMSO; higher = more infection; conditions: 24 h
[8] = tested on: A549-ACE2; assay: phospholipidosis EC50; higher = less potent phospholipidosis inducer
[9] = tested on: A549-ACE2; assay: drug-induced phospholipidosis relative to tamoxifen; higher = more phospholipidosis
[10] = tested on: A549-ACE2 infected with SARS-CoV-2; assay: morphology score (similarity to uninfected cells); higher = more like uninfected cells; conditions: 24 h
[11] = tested on: Calu-3; assay: relative viability EC50 (midpoint between 100% and the lowest measured viability); higher = less toxic; conditions: 72 h
[12] = tested on: HepG2; assay: as above; conditions: 72 h
[13] = tested on: Vero E6; assay: as above; conditions: 72 h
[14] = tested on: Caco-2; assay: drug sensitivity score (DSS) for viability; higher = more toxic; extreme values may be limits of the assay; conditions: 72 h
[15] = tested on: Calu-3; assay: as above; conditions: 72 h
[16] = tested on: HepG2; assay: as above; conditions: 72 h
[17] = tested on: U2OS; assay: as above; conditions: 72 h
[18] = tested on: Vero E6; assay: as above; conditions: 72 h
[19] = tested on: Caco-2; assay: relative viability EC50 (midpoint between 100% and the lowest measured viability); higher = less toxic; conditions: 72 h
[20] = tested on: U2OS; assay: as above; conditions: 72 h

O=C(Nc1ncc(SCCN2CCCC2)s1)[C@]1(c2ccc(S(=O)(=O)C3CC3)cc2)C[C@H]1C1CCCCC1
Conditions	SARS-CoV-2 infection rate [%]	cell count [%]	cell viability [%]	morphology score	phospholipidosis EC50 [µM]
[1], 0.3 µM	–	101	–	–	–
[1], 3 µM	–	115	–	–	–
[1], 10 µM	–	118	–	–	–
[1], 30 µM	–	56	–	–	–
[2], 1 nM	–	–	101	–	–
[2], 10 nM	–	–	98.9	–	–
[2], 100 nM	–	–	98	–	–
[2], 1000 nM	–	–	102	–	–
[2], 10000 nM	–	–	69	–	–
[3], 1 nM	–	–	110	–	–
[3], 10 nM	–	–	93.8	–	–
[3], 100 nM	–	–	96.4	–	–
[3], 1000 nM	–	–	103	–	–
[3], 10000 nM	–	–	14	–	–
[4], 1 nM	–	–	104	–	–
[4], 10 nM	–	–	99.2	–	–
[4], 100 nM	–	–	98.6	–	–
[4], 1000 nM	–	–	90.2	–	–
[4], 10000 nM	–	–	44.8	–	–
[5], 1 nM	–	–	99.4	–	–
[5], 10 nM	–	–	105	–	–
[5], 100 nM	–	–	104	–	–
[5], 1000 nM	–	–	102	–	–
[5], 10000 nM	–	–	74.9	–	–
[6], 1 nM	–	–	96.3	–	–
[6], 10 nM	–	–	94.6	–	–
[6], 100 nM	–	–	97.2	–	–
[6], 1000 nM	–	–	90.5	–	–
[6], 10000 nM	–	–	95.4	–	–
[7], 0.3 µM	94	–	–	–	–
[7], 3 µM	27	–	–	–	–
[7], 10 µM	8	–	–	–	–
[7], 30 µM	44	–	–	–	–
[8], 24 h	–	–	–	–	6.5
[8], 48 h	–	–	–	–	5.12
[8], 72 h	–	–	–	–	5.4
[10], 0.3 µM	–	–	–	0.2	–
[10], 3 µM	–	–	–	0.84	–
[10], 10 µM	–	–	–	0.6	–
[10], 30 µM	–	–	–	-0.07	–

drug-induced phospholipidosis [%], [9]
Conditions	0.3 µM	0.833333 µM	3.33333 µM	6.66667 µM	10 µM	30 µM
24 h	14.6	32.7	73.1	104	117	197
48 h	10.1	21.2	80.9	105	132	–
72 h	11.7	19.3	75.5	114	138	–

Conditions	drug sensitivity score	relative viability EC50 [µM]
[11]	–	3.34
[12]	–	1.84
[13]	–	> 10
[14]	1.3	–
[15]	4.6	–
[16]	4.6	–
[17]	0.8	–
[18]	0	–

CC/C(=C(\c1ccc(O)cc1)c1ccc(OCCNC)cc1)c1ccccc1 [Endoxifen HCl]
Conditions	SARS-CoV-2 infection rate [%]	cell count [%]	cell viability [%]	morphology score	phospholipidosis EC50 [µM]
[1], 0.3 µM	–	98	–	–	–
[1], 3 µM	–	123	–	–	–
[1], 10 µM	–	118	–	–	–
[1], 30 µM	–	25	–	–	–
[2], 1 nM	–	–	104	–	–
[2], 10 nM	–	–	115	–	–
[2], 100 nM	–	–	106	–	–
[2], 1000 nM	–	–	105	–	–
[2], 10000 nM	–	–	53.6	–	–
[3], 1 nM	–	–	102	–	–
[3], 10 nM	–	–	94	–	–
[3], 100 nM	–	–	96.6	–	–
[3], 1000 nM	–	–	100	–	–
[3], 10000 nM	–	–	5.1	–	–
[4], 1 nM	–	–	110	–	–
[4], 10 nM	–	–	95.4	–	–
[4], 100 nM	–	–	103	–	–
[4], 1000 nM	–	–	105	–	–
[4], 10000 nM	–	–	36.5	–	–
[6], 1 nM	–	–	103	–	–
[6], 10 nM	–	–	105	–	–
[6], 100 nM	–	–	103	–	–
[6], 1000 nM	–	–	99.9	–	–
[6], 10000 nM	–	–	91.1	–	–
[7], 0.3 µM	100	–	–	–	–
[7], 3 µM	30	–	–	–	–
[7], 10 µM	8	–	–	–	–
[7], 30 µM	86	–	–	–	–
[8], 24 h	–	–	–	–	1.9
[8], 48 h	–	–	–	–	3
[8], 72 h	–	–	–	–	3.1
[10], 0.3 µM	–	–	–	0.02	–
[10], 3 µM	–	–	–	0.87	–
[10], 10 µM	–	–	–	0.84	–
[10], 30 µM	–	–	–	-0.2	–

drug-induced phospholipidosis [%], [9]
Conditions	0.3 µM	0.833333 µM	3.33333 µM	6.66667 µM	10 µM
24 h	5.89	13.1	65.7	78.7	78.6
48 h	5.61	7.92	62.4	83.1	77.4
72 h	8.35	4.33	55.2	86.8	88.4

Conditions	drug sensitivity score	relative viability EC50 [µM]
[11]	–	3.19
[12]	–	3.53
[13]	–	> 10
[14]	2.1	–
[15]	5.3	–
[16]	3.1	–
[18]	0	–

CC(C)C[C@@H](C=O)NC(=O)[C@H](CC(C)C)NC(=O)[C@H](CC(C)C)NC(=O)OCc1ccccc1 [MG-132]
Conditions	SARS-CoV-2 infection rate, [7] [%]	cell count, [1] [%]	cell viability, [2] [%]	cell viability, [3] [%]	cell viability, [4] [%]	cell viability, [5] [%]	cell viability, [6] [%]	morphology score, [10]
1 nM	–	–	99.9	96.6	102	99.8	93.1	–
10 nM	–	–	103	113	97	99.7	100	–
100 nM	–	–	94.5	102	107	95.7	104	–
0.3 µM	38	109	–	–	–	–	–	0.7
1000 nM	–	–	17.4	23	22.1	9.3	48.5	–
3 µM	9	37	–	–	–	–	–	0.33
10 µM	20	22	–	–	–	–	–	0.22
10000 nM	–	–	5.2	3.7	-0.1	-0.1	4.4	–
30 µM	30	14	–	–	–	–	–	0.18

[9], 24 h
Conditions	drug-induced phospholipidosis [%]
0.3 µM	21.5
0.833333 µM	10.6

Conditions	drug sensitivity score	relative viability EC50 [µM]
[11]	–	0.578
[12]	–	0.611
[13]	–	0.94
[14]	15.8	–
[15]	14.2	–
[16]	14.4	–
[17]	17	–
[18]	11.6	–
[19]	–	0.391
[20]	–	0.377

Oc1ccc2c3c1O[C@H]1c4c(c5ccccc5n4Cc4ccccc4)C[C@@]4(O)[C@@H](C2)N(CC2CC2)CC[C@]314 [N-benzylnaltrindole]
Conditions	SARS-CoV-2 infection rate [%]	cell count [%]	cell viability [%]	morphology score	phospholipidosis EC50 [µM]
[1], 0.1 µM	–	100	–	–	–
[1], 0.3 µM	–	101	–	–	–
[1], 1 µM	–	104	–	–	–
[1], 3 µM	–	108	–	–	–
[2], 1 nM	–	–	88.7	–	–
[2], 10 nM	–	–	99.7	–	–
[2], 100 nM	–	–	88.5	–	–
[2], 1000 nM	–	–	99	–	–
[2], 10000 nM	–	–	86.9	–	–
[3], 1 nM	–	–	96.9	–	–
[3], 10 nM	–	–	99.8	–	–
[3], 100 nM	–	–	106	–	–
[3], 1000 nM	–	–	100	–	–
[3], 10000 nM	–	–	38.9	–	–
[4], 1 nM	–	–	102	–	–
[4], 10 nM	–	–	98.9	–	–
[4], 100 nM	–	–	103	–	–
[4], 1000 nM	–	–	100	–	–
[4], 10000 nM	–	–	54.8	–	–
[5], 1 nM	–	–	94.9	–	–
[5], 10 nM	–	–	102	–	–
[5], 100 nM	–	–	95.9	–	–
[5], 1000 nM	–	–	102	–	–
[5], 10000 nM	–	–	89.1	–	–
[6], 1 nM	–	–	100	–	–
[6], 10 nM	–	–	96	–	–
[6], 100 nM	–	–	95.1	–	–
[6], 1000 nM	–	–	96.2	–	–
[6], 10000 nM	–	–	70.1	–	–
[7], 0.1 µM	96	–	–	–	–
[7], 0.3 µM	94	–	–	–	–
[7], 1 µM	90	–	–	–	–
[7], 3 µM	69	–	–	–	–
[8], 24 h	–	–	–	–	2.62
[8], 48 h	–	–	–	–	4.61
[8], 72 h	–	–	–	–	6.76
[10], 0.1 µM	–	–	–	0.1	–
[10], 0.3 µM	–	–	–	0.1	–
[10], 1 µM	–	–	–	0.24	–
[10], 3 µM	–	–	–	0.47	–

drug-induced phospholipidosis [%], [9]
Conditions	0.3 µM	0.833333 µM	3.33333 µM	6.66667 µM	10 µM	30 µM
24 h	4.31	4.24	48.7	70.1	59	26.2
48 h	5.61	4.16	44.9	83.7	102	–
72 h	4.1	4.23	35.4	81.8	111	–

Conditions	drug sensitivity score	relative viability EC50 [µM]
[11]	–	3.19
[14]	0	–
[15]	3.3	–
[16]	2.3	–
[17]	0	–
[18]	1.9	–
[19]	–	> 10
[20]	–	> 10

CNCc1ccc(-c2cc(-c3nc(-c4ccc(S(=O)(=O)C(C)C)cc4)cnc3N)on2)cc1 [VE-822]
Conditions	SARS-CoV-2 infection rate [%]	cell count [%]	cell viability [%]	morphology score	phospholipidosis EC50 [µM]
[1], 0.1 µM	–	107	–	–	–
[1], 0.3 µM	–	110	–	–	–
[1], 1 µM	–	128	–	–	–
[1], 3 µM	–	118	–	–	–
[2], 1 nM	–	–	104	–	–
[2], 10 nM	–	–	103	–	–
[2], 100 nM	–	–	103	–	–
[2], 1000 nM	–	–	92.8	–	–
[2], 10000 nM	–	–	49.3	–	–
[3], 1 nM	–	–	96.5	–	–
[3], 10 nM	–	–	93.2	–	–
[3], 100 nM	–	–	93.4	–	–
[3], 1000 nM	–	–	106	–	–
[3], 10000 nM	–	–	90	–	–
[4], 1 nM	–	–	111	–	–
[4], 10 nM	–	–	99	–	–
[4], 100 nM	–	–	94	–	–
[4], 1000 nM	–	–	53.3	–	–
[4], 10000 nM	–	–	19.1	–	–
[5], 1 nM	–	–	101	–	–
[5], 10 nM	–	–	104	–	–
[5], 100 nM	–	–	96	–	–
[5], 1000 nM	–	–	89.9	–	–
[5], 10000 nM	–	–	67.4	–	–
[6], 1 nM	–	–	94.8	–	–
[6], 10 nM	–	–	95.7	–	–
[6], 100 nM	–	–	97.2	–	–
[6], 1000 nM	–	–	85.1	–	–
[6], 10000 nM	–	–	2.1	–	–
[7], 0.1 µM	89	–	–	–	–
[7], 0.3 µM	89	–	–	–	–
[7], 1 µM	51	–	–	–	–
[7], 3 µM	25	–	–	–	–
[8], 24 h	–	–	–	–	1.16
[8], 48 h	–	–	–	–	3.02
[8], 72 h	–	–	–	–	2.97
[10], 0.1 µM	–	–	–	0.32	–
[10], 0.3 µM	–	–	–	0.31	–
[10], 1 µM	–	–	–	0.57	–
[10], 3 µM	–	–	–	0.55	–

drug-induced phospholipidosis [%], [9]
Conditions	0.3 µM	0.833333 µM	3.33333 µM	6.66667 µM	10 µM	30 µM
24 h	13.9	27.3	86.2	113	119	42.3
48 h	14.2	28	89.1	124	148	62.7
72 h	16.7	20.1	102	143	163	63.3

Conditions	drug sensitivity score	relative viability EC50 [µM]
[11]	–	> 10
[12]	–	0.779
[13]	–	1.97
[14]	3.9	–
[15]	0	–
[16]	10.1	–
[17]	2.6	–
[18]	7.9	–
[19]	–	2.04
